The values below come from US11806350B2, “Prevention and/or treatment of CNS disorders” (ILDONG PHARMACEUTICAL CO., LTD., priority 2020, dated 2023).

SMILES strings stand for the structures. pKi: −log10 of the molar value.

Series [1] relates to unilateral 6-hydroxydopamine (6-OHDA) lesion animal model of Parkinson's Disease. Nature of the series: Axial, limb and orolingual abnormal involuntary movement scores (ALO AIMs) in 6-OHDA lesioned, L-DOPA primed rats. It counts as in vivo, Wistar Han rats. As to conditions: after 4 days L-DOPA priming wash out; per oral (1-30 mg/kg) or intranasal (0.3-10 mg/kg); FIG. 2B. Here is the method: (§1) To generate animal model of Parkinson's Disease (PD), a number of 67 female Wistar Han rats of approximately 9 weeks of age received unilateral 6-hydroxydopamine (6-OHDA) lesion. To induce the 6-OHDA lesion, each of the animals received one injection with 2 μl (4 μg/μl) in the medial forebrain bundle (MFB). 6-OHDA is widely used to lesion the nigrostriatal dopaminergic system as a model of PD.
Three weeks after the injections, cylinder test for the evaluation of locomotor asymmetry was performed to determine the efficacy of the 6-OHDA lesion (4 animals died before testing). Based on the results of the cylinder test, 6-OHDA lesioned animals were further included in the study. In compound standalone testing groups (B+C), animals (n=52) were received L-DOPA (Levodopa or L-3,4-dihydroxyphenylalanine) priming (2 animals died before group allocation). Animals (n=11) not showing symptoms were eliminated without any further administration of test compounds or tissue collection. […]
ALO test was performed on treatment days (4 days after end of L-DOPA priming) with all animals used for the compound stand alone testing. ALO AIMs were scored starting 5 min […] after the vehicle, L-DOPA/Benserazide and IN administration of the test compound, and 2h (+/−5 min) after PO administration of the test compound and every 20 min thereafter for 3 h. […]
ALO AIMs were scored for 1 min, every 20 min for 180 min. […]

The target of series [2] is T1, Human recombinant adenosine A2A receptors (Homo sapiens, UniProt P29274).
T1 construct: expressed in transfected cells; host or cells: HEK-293 cells (membrane preparation)
T1 sequence (P29274 whole entry): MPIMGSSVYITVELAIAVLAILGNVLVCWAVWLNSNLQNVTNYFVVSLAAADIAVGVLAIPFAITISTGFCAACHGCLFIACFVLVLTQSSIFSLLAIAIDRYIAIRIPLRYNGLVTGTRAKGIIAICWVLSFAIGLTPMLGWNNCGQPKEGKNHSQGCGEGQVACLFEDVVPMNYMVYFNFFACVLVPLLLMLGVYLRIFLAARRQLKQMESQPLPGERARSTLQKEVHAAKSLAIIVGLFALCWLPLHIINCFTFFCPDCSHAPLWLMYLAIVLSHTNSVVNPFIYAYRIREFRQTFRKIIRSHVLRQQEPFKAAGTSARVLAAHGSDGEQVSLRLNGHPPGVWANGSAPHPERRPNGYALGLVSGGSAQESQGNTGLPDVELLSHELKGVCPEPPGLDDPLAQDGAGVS
Nature of the series: Human adenosine A2A receptor binding assay ([3H]CGS-21680). The settings on record: membranes of HEK-293 cells, 50 nM [3H]CGS-21680, 90 minutes at 25° C.; read-out: hA2A Ki. Here is the method:
2.2 Human Adenosine A2A Receptor Binding Assay
Test compound is weighed, dissolved in DMSO to make a stock solution of 10 mM, diluted with DMSO to prepare working solutions, then 100-fold diluted to the indicated concentrations. Human recombinant adenosine A2A receptors expressed in HEK-293 cells were used to prepare membranes in incubation buffer (50 mM Tris-HCl, pH 7.4, 10 mM MgCl2, 1 mM EDTA, 2 U/ml Adenosine Deaminase). Test compound or vehicle (2.2 μL) was added in 200 μL of membranes and incubated with 20 μL of 50 nM [^3H] […] Non-specific binding was estimated in the presence of 50 μM NECA (5′-N-ethylcarboxamidoadenosine). The incubation was stopped by vacuum filtration onto 0.3% PEI (polyethylenimine) presoaked GF/B filters using a harvester followed by four washes with ice-cold 50 mM Tris-HCl, pH 7.4, and the radioactivity on GF/B filtermats counted in a scintillation counter (PerkinElmer TOPCOUNT™) to determine [^3H] […] Final concentration of vehicle DMSO is 1%.
(§2) Data is fitted using the non-linear curve fitting routines in Meth-IQ software (ID Business Solutions Ltd., UK). IC50 is converted to Ki by Cheng-Prusoff equation: Ki=IC50/(1+[L]/KD) where [L] is concentration of radiolabeled ligand used in the assay.

For series [3], the system named is unilateral 6-hydroxydopamine (6-OHDA) lesion animal model of Parkinson's Disease. In words: Cylinder test (forelimb use asymmetry) in 6-OHDA lesioned rats. It counts as in vivo, Wistar Han rats. Here is the method:
as §1
Three weeks after the injections, cylinder test for the evaluation of locomotor asymmetry was performed to determine the efficacy of the 6-OHDA lesion (4 animals died before testing). Based on the results of the cylinder test, 6-OHDA lesioned animals were further included in the study. In compound standalone testing groups (B+C), animals (n=52) were received L-DOPA (Levodopa or L-3,4-dihydroxyphenylalanine) priming (2 animals died before group allocation). […]
Cylinder test was performed on treatment days (4 days after end of L-DOPA priming) with all animals used for testing. […] Each animal was individually evaluated for 5 minutes. The number of contacts on the cylinder wall with the right paw, left and both paws simultaneously were counted. The results were given in percentage and calculating is done as follows: the test total sum of contacts on the cylinder wall with the right paw, left paw and both totaled 100%, based on this, a percentage value for each finding was calculated (Araujo, 2013).

Series [4] addresses T2, Human recombinant adenosine A1 receptors (Homo sapiens, UniProt P30542).
T2 construct: expressed in transfected cells; host or cells: CHO-K1 cells (membrane preparation)
T2 sequence (P30542 1-326): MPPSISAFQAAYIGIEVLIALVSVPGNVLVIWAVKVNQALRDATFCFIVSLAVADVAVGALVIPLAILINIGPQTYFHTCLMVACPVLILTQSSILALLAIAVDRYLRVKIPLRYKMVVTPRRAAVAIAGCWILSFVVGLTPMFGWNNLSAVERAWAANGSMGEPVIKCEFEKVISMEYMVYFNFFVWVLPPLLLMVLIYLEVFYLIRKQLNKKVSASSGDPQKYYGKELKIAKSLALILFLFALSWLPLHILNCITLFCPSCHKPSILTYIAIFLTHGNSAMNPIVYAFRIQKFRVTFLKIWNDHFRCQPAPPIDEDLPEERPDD
In words: Human adenosine A1 receptor binding assay ([3H]DPCPX). As to conditions: membranes of CHO-K1 cells, 1 nM [3H]DPCPX, 90 minutes at 25° C.; read-out: hAl Ki. Here is the method: 2.1 Human Adenosine A1 Receptor Binding Assay
Test compound is weighed, dissolved in DMSO to make a stock solution of 10 mM, diluted with DMSO to prepare working solutions, then 100-fold diluted to the indicated concentrations. Human recombinant adenosine A1 receptors expressed in CHO-K1 cells were used to prepare membranes in incubation buffer (20 mM HEPES (4-(2-hydroxyethyl)-1-piperazineethanesulfonic acid) pH 7.4, 10 mM MgCl2, 100 mM NaCl). Test compound or vehicle (2.2 μL) was added in 200 μL of membranes and incubated with 20 μL of 1 nM [^3H] DPCPX (8-cyclopentyl-1,3-dipropylxanthine) for 90 minutes at 25° C. Non-specific binding was estimated in the presence of 100 μM R(−)-PIA ((R)—N-(1-methyl-2-phenylethyl)adenosine). The incubation was stopped by vacuum filtration onto 0.3% PEI (polyethylenimine) presoaked GF/B filters using a harvester followed by four washes with ice-cold 50 mM Tris-HCl, pH 7.4, and the radioactivity on GF/B filtermats counted in a scintillation counter (PerkinElmer Topcount™) to determine [^3H] DPCPX specifically bound. Final concentration of vehicle DMSO is 1%.
as §2

As usually defined, the pKi is the Ki on a negative log10 scale, so that one unit is a factor of ten. For the compound `N#Cc1cccc(-c2nc(N)nc3c2cnn3Cc2ccc(N)c(C(F)(F)F)c2)c1` [Compound 210, 3-(6-amino-1-(4-amino-3-(trifluoromethyl)benzyl)-1H-pyrazolo[3,4-d]pyrimidine-4-yl)benzonitrile], the “L-DOPA/Benserazide induced dyskinesia-like side effects (ALO AIM scores)” value in series [1] is reported as “did not induce L-DOPA/Benserazide induced dyskinesia-like side effects”. The pKi in series [2] is more than 7.70; in series [4] it was not below 7.00. Further, the “contralateral limb usage in cylinder test” value in series [3] (IN route and PO route, compared to the vehicle treated group, FIGS. 3A, 3B) is on record as “concentration related trend towards increased contralateral limb usage”. Also, in series [3] (intranasal administration compared to the PO administration group), the “contralateral limb usage in cylinder test, intranasal compared to PO administration” value is “more pronounced concentration related trend”.
In the case of `Cc1cc(Cn2ncc3c(-c4cncc(C#N)c4)nc(N)nc32)ccc1N` [Compound 229, 5-(6-amino-1-(4-amino-3-methylbenzyl)-1H-pyrazolo[3,4-d]pyrimidine-4-yl)nicotinonitrile], the pKi in series [2] was 5.30 to 6.00; in series [4], less than 5.00.
In the same order, the values of `N#Cc1cccc(-c2nc(N)nc3c2cnn3Cc2c(F)cc(N)cc2F)n1` [Compound 223, 6-[6-amino-1-[(4-amino-2,6-difluoro-phenyl)methyl]pyrazolo[3,4-d]pyrimidine-4-yl]pyridine-2-carbonitrile] are more than 7.70 and 6.00 to 7.00.
For the compound `N#Cc1cncc(-c2nc(N)nc3c2cnn3Cc2ccc(N)cc2F)c1` [Compound 221, 5-[6-amino-1-[(4-amino-2-fluoro-phenyl)methyl]pyrazolo[3,4-d]pyrimidine-4-yl]pyridine-3-carbonitrile], the values for the pKi in series [2] and in series [4] were 5.30 to 6.00 and less than 5.00, respectively.
In the same order, the values of `Cc1cc(Cn2ncc3c(-c4cccc(C#N)c4)nc(N)nc32)ccc1N` [Compound 204, 3-(6-amino-1-(4-amino-3-methylbenzyl)-1H-pyrazolo[3,4-d]pyrimidine-4-yl)benzonitrile] are more than 7.70 and 6.00 to 7.00.
In the same order, the values of `N#Cc1ccnc(-c2nc(N)nc3c2cnn3Cc2c(F)cccc2F)c1` [Compound 232, 2-(6-amino-1-(2,6-difluorobenzyl)-1H-pyrazolo[3,4-d]pyrimidine-4-yl)isonicotinonitrile] are 6.70 to 7.70 and 6.00 to 7.00.
